# Measurements as given in US12146143B2, “Method for producing transformed plant and transformation agent” (priority 2019, dated 2024).
# What was measured:
# [1] = system: calluses of the mutant ghy; assay: Redifferentiation from calluses with plant hormones; format: cell-based, Chenopodium quinoa
# Protocol: A medium was produced by partially modifying spinach redifferentiation medium composition reported in the literature (Jinhua Bao (2009) Establishment of Transformation System for Spinach based on Agrobacterium Method and Introduction of Useful Gene, Chiba University Graduate School doctoral dissertation), and was used in the experiment (Table 2). Non-transformed calluses induced from seedling sections of the Kd variety were cultured under preset conditions shown in Table 13. A “+” group for the redifferentiation inducing light condition was cultured in an incubator at 20° C. under 8-h light/16-h dark conditions, and a “−” group was placed in a steel can in an incubator under the same conditions, and was cultured under a light-shielding condition. In groups with GA concentrations of 1 and 2, non-transformed calluses were plated on redifferentiation media supplemented with gibberellin at 1 mg/L and 2 mg/L, respectively.
# Transformed calluses were successfully formed in the mutant ghy variety incapable of synthesizing betalain pigments. In view of this, an attempt was made to induce redifferentiation from calluses of the mutant ghy. 2,4-Dichlorophenoxyacetic acid (2,4-D) serving as a plant hormone having an auxin-like action, and benzyladenine and kinetin each serving as a plant hormone having a cytokinin-like action were combined at various concentrations, and redifferentiation was attempted. […] In addition, when the concentrations of both of 2,4-D and the cytokinin-like plant hormone (benzyladenine or kinetin) were increased, hard and rounded calluses were obtained. […] However, redifferentiation of any other organ was not found.
# [2] = system: quinoa (Kd, ghy, rebc, and ghy/rebc); assay: Floral dip/non-cutting-sealing method using improved bacterium, GUS staining of female organs; format: in vivo, Chenopodium quinoa; conditions: mutant ghy/rebc
# Protocol: Bacteria used in the experiment were streaked on LB solid medium supplemented with 100 mg/L kanamycin and 100 mg/L hygromycin, and was cultured at 26° C. under a 24-h dark condition for 2 days (Table 3). The proliferated bacteria were transferred to 50 mL of LB liquid medium supplemented with 100 mg/L kanamycin and 100 mg/L hygromycin (in a 300 mL Erlenmeyer flask), and were cultured using a shaking thermostatic water bath BW201 under the conditions of 26° C., about 24 hours, and about 130 rpm. After the culture, the bacterial culture suspension (OD600=about 2.0) was transferred to a 50 mL conical tube, and centrifuged using Mx-301 Highspeed Refrigerated Micro Centrifuge (10 minutes, […]). The supernatant was discarded, followed by addition of 20 mL of a 5% (w/v) sucrose solution containing Silwet L-77 and resuspension using VORTEX-GENIE 2 to produce a bacterial suspension (results shown in Example 1 and results shown in Example 3 were obtained by inoculation experiments using Silwet L-77 at 0.02% (v/v) and 0.04% (v/v), respectively). At the time of inoculation with the bacterial suspension, quinoa to be used was placed in a sealed container (Mippail (Fuji System Pack, Tokyo, Japan)) filled with water, and the bacterial suspension was dropped onto an ear using P200 Pipetman (Gilson, Manhattan, NY, USA). […]
compound,measurement,setting,value
"O=C(O)COc1ccc(Cl)cc1Cl [2,4-D, 2,4-Dichlorophenoxyacetic acid]",Redifferentiation of adventitious roots,"[1]; medium containing only 0.01 mg/L or 0.1 mg/L 2,4-D",adventitious roots were redifferentiated
c1ccc(CNc2ncnc3nc[nH]c23)cc1 [benzyladenine],Colour of calluses,[1]; calluses plated in media containing the hormone,turned darker green
same,Redifferentiation of adventitious roots,[1]; medium containing only 1 mg/L or 2 mg/L benzyladenine,adventitious roots were redifferentiated
c1coc(CNc2ncnc3[nH]cnc23)c1 [kinetin],Elongation of adventitious roots,[1]; medium containing only 1 mg/L kinetin,showed remarkable elongation of adventitious roots
"CC1=CC(=O)CC(C)(C)[C@@]1(O)/C=C/C(C)=C\C(=O)O [ABA, Abscisic acid]",Individuals exhibiting female organ-specific GUS expression,"[2]; 500 mM ABA added to suspension of MAFF311303pTiMAFF301276ΔT-DNA, without cutting-sealing",60%
same,Female organ-specific GUS expression ratio relative to the case of adding no ABA,[2]; 500 mM ABA vs no ABA,6 times
